Reference: patent publication US20150283269A1, “RECONSTITUTED HUMAN IMMUNE SYSTEM IN A PATIENT DERIVED XENOGRAFT MOUSE MODEL” (Crown Bioscience Inc., priority 2014, published 2015)

System: GA 0055 tumor
Test: Anti-tumor activity against GA 0055 gastric tumor PDX in HuMice and NOD/SCID mice
Type: in vivo, mouse
From the text: In yet another example of the utility of the HuPrime™ 3.0 mouse model (PDX human immunocompetent NOD/SCID mouse with CD34^+ hSC+PDX gastric tumor), patient cells derived from a human patient diagnosed with over-expressing gastric cancer, GA 0055, were engrafted into HuPrime™ 3.0 mice.
The HuPrime™ 3.0 mice engrafted with GA 0055 were divided into six groups, four mice each. Three groups were engrafted with UCB human stem cells and three groups were not.
Patient tumor fragments of NSCLC or gastric tumor tissue derived from diseased seed mice were engrafted 2.5 weeks after the CD34+ cell inoculation in order to create patient derived xenograft (PDX) models. Solid tumor sample fragments from seed mice inoculated with selected primary human lung or gastric cancer tissues were harvested and used for inoculation into mice. Each mouse was inoculated subcutaneously at the right flank with one tumor fragment (2-3 mm in diameter) for tumor development. The treatments were started when mean tumor size reached approximately 100-150 mm^3 The transplanted animals were monitored by weekly bleed and FACS analysis for hCD45^+ cells in peripheral blood.

## N.N.[Cl][Pt][Cl] [Cisplatin]
5 mg/kg Cisplatin, H&E stained cross-section (40x10), FIG. 6A
  treatment response, stained GA 0055 tumor cross-sections: effective
HuMice mice (reconstituted human immunocompetent) engrafted with GA 0055, with vs without treatment, FIG. 7A, 7C
  tumor growth: slowed tumor growth
